The values below come from patent US20220288156A1, “TREATMENT” (QUEEN MARY UNIVERSITY OF LONDON, priority 2019, published 2022).

This test deals with cardiomyocytes. Description: Cardiomyocyte size assessment after angiotensin II. The format is cell-based, mouse. The settings on record: 1 μM angiotensin II vs vehicle. The procedure:
For cardiomyocyte hypertrophy assessment, 1 μM angiotensin II (Alfa Aesar, ThermoFisher Scientific) was added to cardiomyocyte growth media post serum starvation (i.e. 6 days post-culture), and this was refreshed the next day. Images of cardiomyocytes were captured using a bright field microscope at 40× magnification at 0, 24, and 48 hours post-angiotensin II treatment and analysed using ImageJ™ software.

Regarding “angiotensin II (DRVYIHPF; Angiotensin-2; UniProt P01019 25-32, looked up) [AngII, used to mimic the molecular stress of heart failure in cardiomyocytes]”, the cardiomyocyte cell size result was “significant increase in cell size”.
